The values that follow come from patent publication US7868188B2, “5-heteroaryl thiazoles and their use as PI3K inhibitors” (AstraZeneca AB, priority 2004, dated 2011).

Structures are written as SMILES. Bounds are passed on as bounds.

One may read the IC50 as the concentration at which inhibition is half-maximal. Higher therefore signals weaker potency in that assay.

Common to all, as to assay: PI 3-Kinase Assay (Additional Pharmacological Analysis, AlphaScreen)
Type in all cases: biochemical
Details in all cases: 40 μM ATP

Assay [1] addresses T1, p110α Type Ia human PI3K (Homo sapiens, UniProt P42336).
T1 construct: full length DNA of each of the p110α, p110β and p110δ Type Ia human PI3K p110 isoforms; 6-His; made in house; host or cells: baculovirus expression system (Sf9 is named only for PI3Kγ)
From the text: (§1) In order to assess the ability of compounds to inhibit PI3K enzymes, especially PI3Kγ, a novel PI3K assay technology was established. The PI3K enzyme reaction product phosphatidylinositol 3,4,5-trisphosphate (PtdIns(3,4,5)P3) is detected using the pleckstrin homology (PH) domain from general receptor for phosphoinositides (GRP1) as probe. Thus, complexes form between GRP1 PH and PtdIns(3,4,5)P3, and if the lipid is biotinylated and the PH domain tagged with glutathion transferase (GST), the complexes can be detected using AlphaScreen® (PerkinElmer) technology. The signal generated by the complex between GRP1 PH-GST and PtdIns(3,4,5)P3-biotin can be quenched by introduction of non-biotinylated PtdIns(3,4,5)P3, forming the basis for an assay measuring the production of PtdIns(3,4,5)P3 by PI3K enzyme activity.
(§2) Biotinylated PtdIns(3,4,5)P3 was detected using AlphaScreen® technology. Detection was in 384-well microplates in 50 mM Hepes, pH7.4, 50 mM NaCl and 0.1% BSA. The biotinylated, short chain (diC8) phosphoinositide and GRP1 PH-GST were added at 15 nM and 3.75 nM, respectively. Donor and acceptor AlphaScreen® beads (Perkin Elmer) were added at 5 μg/ml to a final volume of 50 μl. Plates were incubated in the dark for 5 hours to ensure binding was complete and then read in an AlphaQuest AD instrument (Perkin Elmer) using standard settings.
(§3) The GRP1 PH domain (amino acids 263 to 380) was PCR cloned from a mouse brain cDNA library (Stratagene), expressed in E. coli and purified using standard protocols. Lipids were from Echelon Research Laboratories, Salt Lake City, Utah, or Cell Signals Inc., Lexington, Ky., USA.
(§4) The assay used AlphaScreen® based detection of PI(3,4,5)P3 (Gray et al., Anal. Biochem., 2003, 313, 234-245) to determine the ability of test compounds to inhibit phosphorylation of recombinant PI3Ks of PI(4,5)P2.
(§5) DNA fragments encoding human PI3K catalytic and regulatory subunits were isolated from cDNA libraries using standard molecular biology and PCR cloning techniques. The selected DNA fragments were used to generate baculovirus expression vectors. In particular, full length DNA of each of the p110α, p110β and p110δ Type Ia human PI3K p110 isoforms (EMBL Accession Nos. HSU79143, S67334, Y10055 for p110α, p110β and p110δ, respectively) were sub-cloned into a pDEST10 vector (Invitrogen Limited, Fountain Drive, Paisley, UK). The vector is a Gateway-adapted version of Fastbac1 containing a 6-His epitope tag. The full length human p85 (regulatory subunit (EMBL Accession No. HSP13KIN) was also sub-cloned into pFastBac1 vector containing a 6-His epitope tag. The Type Ia p110 constructs were co-expressed with the p85α regulatory subunit. Residues 2-1102 of human PI3Kγ were inserted between the BamHI and Not1 cloning sites of the […] HTb vector for expression of His(6)-tagged (N-terminal), full length PI3Kγ in baculo virus infected Sf9 insect cells. Following expression in the baculovirus system using standard baculovirus expression techniques, expressed proteins were purified using standard His epitope tag purification techniques.
(§6) Standard enzyme reactions were performed in 50 mM Hepes, pH7.4, 50 mM NaCl, […], 5 mM DTT and 0.05% CHAPS containing 40 μM ATP, 40 μM diC8 PtdIns(4,5)P2 and 2-20 ng of Type 1 PI3K in a total volume of 20 μl. The reaction was stopped by the addition of 10 μl of EDTA/diC6 PtdIns(3,4,5)P3-biotin followed by 20 μl of GRP1 PH-GST/AlphaScreen beads both in 50 mM Hepes, pH7.4, 50 mM NaCl and 0.1% BSA. Final concentrations were 50 mM EDTA, 15 nM biotinylated diC6PtdIns(3,4,5)P3, 3.75 nM GRP1 PH-GST and 5 μg/ml of AlphaScreen beads. Inhibitors were added to dry wells in […] of 100% DMSO giving a final DMSO concentration of 2.5% in the assay. Control wells contained 2.5% DMSO in the absence of test compound. Inhibition of PI3K by test compounds was expressed as an IC50 value.

Assay [2] concerns the target T2, p110γ Type Ib human PI3K (Homo sapiens, UniProt P48736).
T2 construct: Residues 2-1102 of human PI3Kγ were inserted between the BamHI and Not1 cloning sites; His(6) (N); made in house; host or cells: baculovirus-infected Sf9 insect cells
Description: as §1, §2, §3, §4, §5, §6

Assay [3] addresses T3, p110δ Type Ia human PI3K (Homo sapiens, UniProt O00329).
T3 construct: full length DNA of each of the p110α, p110β and p110δ Type Ia human PI3K p110 isoforms; 6-His; made in house; host or cells: baculovirus expression system (Sf9 is named only for PI3Kγ)
Description: as §1, §2, §3, §4, §5, §6

The target of assay [4] is T4, p110β Type Ia human PI3K (Homo sapiens, UniProt P42338).
T4 construct: full length DNA of each of the p110α, p110β and p110δ Type Ia human PI3K p110 isoforms; 6-His; made in house; host or cells: baculovirus expression system (Sf9 is named only for PI3Kγ)
T4 sequence (P42338 whole entry, canonical isoform): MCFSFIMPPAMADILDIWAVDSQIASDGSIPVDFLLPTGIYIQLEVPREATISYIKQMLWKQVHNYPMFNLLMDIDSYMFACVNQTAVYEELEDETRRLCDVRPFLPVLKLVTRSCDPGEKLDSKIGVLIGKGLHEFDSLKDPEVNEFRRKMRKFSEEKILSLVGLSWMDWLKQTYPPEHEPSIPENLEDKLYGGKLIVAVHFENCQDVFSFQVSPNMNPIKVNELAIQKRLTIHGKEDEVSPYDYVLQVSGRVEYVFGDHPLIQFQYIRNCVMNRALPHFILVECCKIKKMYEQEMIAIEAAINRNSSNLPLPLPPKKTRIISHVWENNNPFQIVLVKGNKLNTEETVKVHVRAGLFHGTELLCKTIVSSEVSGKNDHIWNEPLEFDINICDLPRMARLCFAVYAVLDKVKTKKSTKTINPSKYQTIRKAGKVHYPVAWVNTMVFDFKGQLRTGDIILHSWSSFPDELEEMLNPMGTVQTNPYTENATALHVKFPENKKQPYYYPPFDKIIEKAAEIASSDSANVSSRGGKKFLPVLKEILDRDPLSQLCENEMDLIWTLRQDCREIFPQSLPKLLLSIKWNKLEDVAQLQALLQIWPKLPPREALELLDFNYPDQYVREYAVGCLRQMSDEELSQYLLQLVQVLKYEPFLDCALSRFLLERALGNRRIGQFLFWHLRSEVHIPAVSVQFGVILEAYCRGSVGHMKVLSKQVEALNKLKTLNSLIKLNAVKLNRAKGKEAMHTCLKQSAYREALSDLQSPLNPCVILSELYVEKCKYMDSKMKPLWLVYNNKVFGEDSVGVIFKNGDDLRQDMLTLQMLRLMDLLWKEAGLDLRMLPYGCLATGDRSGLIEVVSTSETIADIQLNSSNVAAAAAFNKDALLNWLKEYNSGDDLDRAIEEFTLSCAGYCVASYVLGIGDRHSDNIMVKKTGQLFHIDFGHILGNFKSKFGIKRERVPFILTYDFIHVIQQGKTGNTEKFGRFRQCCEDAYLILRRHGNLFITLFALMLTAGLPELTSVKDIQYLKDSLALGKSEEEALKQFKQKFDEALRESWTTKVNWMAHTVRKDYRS
T4 sequence (P27986 whole entry partner, canonical isoform): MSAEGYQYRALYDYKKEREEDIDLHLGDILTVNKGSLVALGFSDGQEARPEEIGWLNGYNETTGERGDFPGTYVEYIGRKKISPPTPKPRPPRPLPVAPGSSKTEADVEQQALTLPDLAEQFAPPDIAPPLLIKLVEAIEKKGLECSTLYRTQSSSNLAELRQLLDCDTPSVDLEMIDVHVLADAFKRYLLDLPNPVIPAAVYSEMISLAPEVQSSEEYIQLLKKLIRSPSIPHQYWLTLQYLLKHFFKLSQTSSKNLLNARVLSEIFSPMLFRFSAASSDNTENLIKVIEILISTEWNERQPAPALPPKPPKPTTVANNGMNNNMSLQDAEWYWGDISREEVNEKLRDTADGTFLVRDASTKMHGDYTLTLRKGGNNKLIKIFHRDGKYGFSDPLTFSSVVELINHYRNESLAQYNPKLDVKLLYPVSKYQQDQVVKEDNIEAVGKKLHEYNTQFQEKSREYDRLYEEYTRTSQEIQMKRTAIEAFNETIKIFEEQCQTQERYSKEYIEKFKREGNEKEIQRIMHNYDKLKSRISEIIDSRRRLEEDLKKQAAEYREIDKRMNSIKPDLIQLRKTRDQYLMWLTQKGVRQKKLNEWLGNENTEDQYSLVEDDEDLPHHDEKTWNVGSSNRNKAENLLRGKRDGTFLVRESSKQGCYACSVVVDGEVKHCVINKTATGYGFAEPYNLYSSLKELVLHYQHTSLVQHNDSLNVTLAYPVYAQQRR
Description: as §1, §2, §3, §4, §5, §6

T2 sequence (P48736 2-1102): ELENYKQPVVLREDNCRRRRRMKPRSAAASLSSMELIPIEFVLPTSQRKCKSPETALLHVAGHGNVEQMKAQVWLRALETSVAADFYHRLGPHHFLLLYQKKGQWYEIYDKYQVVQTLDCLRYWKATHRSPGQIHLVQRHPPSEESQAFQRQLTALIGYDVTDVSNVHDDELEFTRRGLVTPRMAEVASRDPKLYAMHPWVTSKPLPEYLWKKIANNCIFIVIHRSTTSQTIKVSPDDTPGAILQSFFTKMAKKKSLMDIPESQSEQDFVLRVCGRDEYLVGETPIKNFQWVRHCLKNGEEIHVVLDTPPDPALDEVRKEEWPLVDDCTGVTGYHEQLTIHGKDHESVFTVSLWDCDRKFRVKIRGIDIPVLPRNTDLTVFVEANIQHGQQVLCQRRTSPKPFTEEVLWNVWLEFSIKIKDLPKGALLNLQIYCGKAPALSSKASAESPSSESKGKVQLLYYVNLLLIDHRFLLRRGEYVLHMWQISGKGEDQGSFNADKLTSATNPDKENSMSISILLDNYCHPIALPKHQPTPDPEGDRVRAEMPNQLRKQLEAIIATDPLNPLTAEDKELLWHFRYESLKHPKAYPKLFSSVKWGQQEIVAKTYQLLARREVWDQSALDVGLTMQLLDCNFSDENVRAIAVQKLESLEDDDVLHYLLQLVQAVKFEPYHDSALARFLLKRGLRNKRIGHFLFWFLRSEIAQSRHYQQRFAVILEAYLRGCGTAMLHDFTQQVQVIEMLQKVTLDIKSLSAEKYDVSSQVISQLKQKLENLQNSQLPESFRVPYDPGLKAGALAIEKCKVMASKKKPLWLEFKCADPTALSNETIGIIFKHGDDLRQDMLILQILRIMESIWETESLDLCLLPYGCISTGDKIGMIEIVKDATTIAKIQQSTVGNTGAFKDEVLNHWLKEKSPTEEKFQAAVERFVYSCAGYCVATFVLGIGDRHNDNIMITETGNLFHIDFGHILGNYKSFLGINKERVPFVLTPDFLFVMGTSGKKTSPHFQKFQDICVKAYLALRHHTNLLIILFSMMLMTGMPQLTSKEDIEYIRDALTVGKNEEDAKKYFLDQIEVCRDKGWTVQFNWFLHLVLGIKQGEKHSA
T1 sequence (P42336 whole entry, canonical isoform): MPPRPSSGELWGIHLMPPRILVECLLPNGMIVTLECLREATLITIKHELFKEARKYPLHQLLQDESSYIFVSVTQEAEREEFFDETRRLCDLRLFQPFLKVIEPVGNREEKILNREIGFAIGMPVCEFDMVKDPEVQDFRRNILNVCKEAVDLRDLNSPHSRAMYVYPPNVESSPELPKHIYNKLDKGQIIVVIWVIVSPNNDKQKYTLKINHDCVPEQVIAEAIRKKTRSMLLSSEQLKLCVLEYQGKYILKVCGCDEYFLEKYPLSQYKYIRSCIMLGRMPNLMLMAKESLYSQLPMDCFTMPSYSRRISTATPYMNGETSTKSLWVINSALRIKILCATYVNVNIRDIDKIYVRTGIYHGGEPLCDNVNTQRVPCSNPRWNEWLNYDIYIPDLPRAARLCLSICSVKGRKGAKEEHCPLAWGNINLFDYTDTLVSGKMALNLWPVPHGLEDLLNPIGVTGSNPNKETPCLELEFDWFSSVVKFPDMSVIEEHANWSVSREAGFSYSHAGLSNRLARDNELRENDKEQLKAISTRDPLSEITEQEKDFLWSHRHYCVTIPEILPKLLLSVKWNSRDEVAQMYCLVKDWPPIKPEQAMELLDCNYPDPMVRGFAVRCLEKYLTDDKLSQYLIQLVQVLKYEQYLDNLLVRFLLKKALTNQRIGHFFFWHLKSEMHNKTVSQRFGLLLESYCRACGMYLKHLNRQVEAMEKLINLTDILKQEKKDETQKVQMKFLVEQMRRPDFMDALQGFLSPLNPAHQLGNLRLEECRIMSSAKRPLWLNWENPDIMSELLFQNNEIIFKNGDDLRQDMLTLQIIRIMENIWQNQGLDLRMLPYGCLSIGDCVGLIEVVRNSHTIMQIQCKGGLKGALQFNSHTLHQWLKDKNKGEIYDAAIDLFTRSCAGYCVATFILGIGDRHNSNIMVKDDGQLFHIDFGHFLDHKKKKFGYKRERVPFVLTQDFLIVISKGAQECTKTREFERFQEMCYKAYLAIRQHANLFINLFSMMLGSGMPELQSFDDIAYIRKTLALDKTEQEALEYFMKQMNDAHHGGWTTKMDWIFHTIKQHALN
T1 sequence (P27986 whole entry partner, canonical isoform): as the sequence (P27986 whole entry partner, canonical isoform) above
T3 sequence (O00329 whole entry, canonical isoform): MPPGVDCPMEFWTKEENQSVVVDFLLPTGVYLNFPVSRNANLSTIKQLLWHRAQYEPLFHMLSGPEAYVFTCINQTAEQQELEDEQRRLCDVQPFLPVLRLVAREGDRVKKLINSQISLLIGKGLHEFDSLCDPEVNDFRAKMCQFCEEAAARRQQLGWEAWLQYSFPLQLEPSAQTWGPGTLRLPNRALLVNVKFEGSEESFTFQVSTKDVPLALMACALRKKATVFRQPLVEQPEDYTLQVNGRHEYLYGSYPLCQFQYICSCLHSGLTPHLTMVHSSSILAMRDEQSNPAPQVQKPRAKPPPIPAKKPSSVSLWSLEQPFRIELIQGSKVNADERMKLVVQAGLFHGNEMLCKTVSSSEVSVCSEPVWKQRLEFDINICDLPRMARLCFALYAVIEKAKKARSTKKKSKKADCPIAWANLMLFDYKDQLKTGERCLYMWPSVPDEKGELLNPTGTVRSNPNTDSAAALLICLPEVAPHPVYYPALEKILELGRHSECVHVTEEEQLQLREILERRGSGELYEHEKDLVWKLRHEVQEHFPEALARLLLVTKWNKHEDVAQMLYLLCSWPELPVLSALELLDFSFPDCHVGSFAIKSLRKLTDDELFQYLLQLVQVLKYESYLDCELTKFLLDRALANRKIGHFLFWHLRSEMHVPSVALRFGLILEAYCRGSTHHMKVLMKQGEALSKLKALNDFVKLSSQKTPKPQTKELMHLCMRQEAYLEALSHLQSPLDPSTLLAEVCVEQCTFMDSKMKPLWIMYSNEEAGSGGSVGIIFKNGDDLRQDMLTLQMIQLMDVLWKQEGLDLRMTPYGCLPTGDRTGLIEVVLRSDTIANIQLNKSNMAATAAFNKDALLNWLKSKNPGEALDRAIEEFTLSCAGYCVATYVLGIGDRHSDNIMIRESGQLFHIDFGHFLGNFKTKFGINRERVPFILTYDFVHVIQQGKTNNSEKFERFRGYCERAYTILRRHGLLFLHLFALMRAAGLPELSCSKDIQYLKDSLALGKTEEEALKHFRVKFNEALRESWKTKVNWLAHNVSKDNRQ
T3 sequence (P27986 whole entry partner, canonical isoform): as the sequence (P27986 whole entry partner, canonical isoform) above

`CC(=O)Nc1nc(C)c(-c2cnc(Cl)c(S(C)(=O)=O)c2)s1` [Example 7, N-[5-(6-Chloro-5-methylsulfonyl-pyridin-3-yl)-4-methyl-1,3-thiazol-2-yl]acetamide]: the IC50 was 0.42 µM in assay [1], 0.22 µM in assay [2], 0.15 µM in assay [3] and 0.74 µM in assay [4].

`CC(=O)Nc1nc(C)c(-c2cncc(S(=O)(=O)NCCO)c2)s1` [Example 8, N-{5-[5-(2-Hydroxyethylaminosulfonyl)pyridin-3-yl]-4-methyl-1,3-thiazol-2-yl}acetamide]: the IC50 in assay [1] worked out at 0.57 µM; in assay [2], 0.4 µM; in assay [3], 0.2 µM; in assay [4], 1.89 µM.

For the compound `CC(=O)Nc1nc(C)c(-c2cnc(Cl)c(NS(=O)(=O)CCCN3CCN(C)CC3)c2)s1` [Example 31, N-(5-{6-Chloro-5-[3-(4-methylpiperazin-1-yl)propylsulfonylamino]pyridin-3-yl}-4-methyl-1,3-thiazol-2-yl)acetamide bis(trifluoroacetate)], the IC50 in assay [1] is 0.05 µM; in assay [2], 0.16 µM; in assay [3] it was 0.01 µM; in assay [4], 0.25 µM.

Take `CC(=O)Nc1nc(C)c(-c2cnc(Cl)c(NCc3ccccc3)c2)s1` [Example 46, N-{5-[5-(Benzylamino)-6-chloropyridin-3-yl]-4-methyl-1,3-thiazol-2-yl}acetamide]: the IC50 is 0.28 µM in assay [1], 0.12 µM in assay [2], 0.2 µM in assay [3] and 0.63 µM in assay [4].

On to `COCC(=O)Nc1nc(C)c(-c2cnc(Cl)c(NS(=O)(=O)c3ccccc3)c2)s1` [Example 56, N-[5-(5-Benzenesulfonylamino-6-chloropyridin-3-yl)-4-methyl-1,3-thiazol-2-yl]-2-methoxyacetamide], for which the IC50 is 0.23 µM in assay [1], 0.26 µM in assay [2], less than 0.1 µM in assay [3] and 0.12 µM in assay [4].
